Patent publication US20210255193A1, “LYSINE REACTIVE PROBES AND USES THEREOF” (The Scripps Research Institute, priority 2017, published 2021)

How the values were obtained:
Test in all cases: competitive isoTOP-ABPP
Type in all cases: binding
[1] = target: T1, XRCC6 X-ray repair cross-complementing protein 6 (Homo sapiens, UniProt P12956); settings: for isoTOP-ABPP ratio (R) at liganded lysine P12956_K351: 50 uM, in vitro, sol, 231
T1 construct: isoTOP-ABPP experiments performed in cell lysates (in vitro); endogenous in cells; host or cells: soluble proteome of human cancer cell lines (MDA-MB-231; Ramos and Jurkat also prepared)
T1 sequence (P12956 2-609 limits assumed): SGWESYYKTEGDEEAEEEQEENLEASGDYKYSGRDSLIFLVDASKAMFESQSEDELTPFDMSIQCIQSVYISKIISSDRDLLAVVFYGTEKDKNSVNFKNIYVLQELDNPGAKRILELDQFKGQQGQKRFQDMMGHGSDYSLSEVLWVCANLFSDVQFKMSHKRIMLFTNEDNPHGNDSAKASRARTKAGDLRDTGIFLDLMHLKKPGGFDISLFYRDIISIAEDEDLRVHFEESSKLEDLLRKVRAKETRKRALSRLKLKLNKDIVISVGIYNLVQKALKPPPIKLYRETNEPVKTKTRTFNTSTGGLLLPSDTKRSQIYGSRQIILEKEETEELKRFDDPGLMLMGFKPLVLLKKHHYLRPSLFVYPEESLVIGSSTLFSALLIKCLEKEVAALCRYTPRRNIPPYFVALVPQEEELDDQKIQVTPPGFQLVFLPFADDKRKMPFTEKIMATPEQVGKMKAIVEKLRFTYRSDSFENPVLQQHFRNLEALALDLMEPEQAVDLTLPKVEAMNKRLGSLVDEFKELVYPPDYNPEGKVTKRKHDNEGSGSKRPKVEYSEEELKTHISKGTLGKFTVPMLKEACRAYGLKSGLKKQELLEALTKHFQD
T1 sequence (P13010 2-732 partner limits assumed): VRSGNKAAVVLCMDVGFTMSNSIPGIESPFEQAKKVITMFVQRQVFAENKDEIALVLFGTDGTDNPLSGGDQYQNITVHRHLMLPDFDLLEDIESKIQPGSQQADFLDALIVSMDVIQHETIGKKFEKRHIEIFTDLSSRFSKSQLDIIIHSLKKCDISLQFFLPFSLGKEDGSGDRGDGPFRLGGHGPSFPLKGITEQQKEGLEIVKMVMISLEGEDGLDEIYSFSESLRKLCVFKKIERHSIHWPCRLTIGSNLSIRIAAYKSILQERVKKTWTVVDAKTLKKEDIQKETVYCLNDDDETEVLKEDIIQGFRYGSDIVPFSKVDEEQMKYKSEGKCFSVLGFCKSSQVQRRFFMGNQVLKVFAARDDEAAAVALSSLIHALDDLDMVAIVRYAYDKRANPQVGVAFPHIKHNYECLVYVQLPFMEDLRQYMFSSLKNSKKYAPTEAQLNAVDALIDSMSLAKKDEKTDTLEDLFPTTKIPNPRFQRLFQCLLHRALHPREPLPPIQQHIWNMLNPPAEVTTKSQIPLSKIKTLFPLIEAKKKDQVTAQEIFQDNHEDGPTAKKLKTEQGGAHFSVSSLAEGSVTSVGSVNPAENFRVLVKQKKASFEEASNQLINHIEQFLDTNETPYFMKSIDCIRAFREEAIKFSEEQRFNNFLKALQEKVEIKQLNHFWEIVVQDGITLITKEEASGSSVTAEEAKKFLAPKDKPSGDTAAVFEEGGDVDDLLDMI
Summary of the method: (§1)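 Here, isoTOP-ABPP measures loss of STP-alkyne labeling at individual lysines after fragment exposure in lysate. Activated esters are dosed at 50 μM, guanidinylating agents at 100 μM; the probe follows at 0.1 mM for 1 h. R ≥4 marks a liganded lysine.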

[2] = target: T2, NAA25 N-alpha-acetyltransferase 25, NatB auxiliary subunit (Homo sapiens, UniProt Q14CX7)
T2 construct: isoTOP-ABPP experiments performed in cell lysates (in vitro); endogenous in cells; host or cells: soluble proteome of human cancer cell lines (MDA-MB-231; Ramos and Jurkat also prepared)
T2 sequence (Q14CX7 whole entry): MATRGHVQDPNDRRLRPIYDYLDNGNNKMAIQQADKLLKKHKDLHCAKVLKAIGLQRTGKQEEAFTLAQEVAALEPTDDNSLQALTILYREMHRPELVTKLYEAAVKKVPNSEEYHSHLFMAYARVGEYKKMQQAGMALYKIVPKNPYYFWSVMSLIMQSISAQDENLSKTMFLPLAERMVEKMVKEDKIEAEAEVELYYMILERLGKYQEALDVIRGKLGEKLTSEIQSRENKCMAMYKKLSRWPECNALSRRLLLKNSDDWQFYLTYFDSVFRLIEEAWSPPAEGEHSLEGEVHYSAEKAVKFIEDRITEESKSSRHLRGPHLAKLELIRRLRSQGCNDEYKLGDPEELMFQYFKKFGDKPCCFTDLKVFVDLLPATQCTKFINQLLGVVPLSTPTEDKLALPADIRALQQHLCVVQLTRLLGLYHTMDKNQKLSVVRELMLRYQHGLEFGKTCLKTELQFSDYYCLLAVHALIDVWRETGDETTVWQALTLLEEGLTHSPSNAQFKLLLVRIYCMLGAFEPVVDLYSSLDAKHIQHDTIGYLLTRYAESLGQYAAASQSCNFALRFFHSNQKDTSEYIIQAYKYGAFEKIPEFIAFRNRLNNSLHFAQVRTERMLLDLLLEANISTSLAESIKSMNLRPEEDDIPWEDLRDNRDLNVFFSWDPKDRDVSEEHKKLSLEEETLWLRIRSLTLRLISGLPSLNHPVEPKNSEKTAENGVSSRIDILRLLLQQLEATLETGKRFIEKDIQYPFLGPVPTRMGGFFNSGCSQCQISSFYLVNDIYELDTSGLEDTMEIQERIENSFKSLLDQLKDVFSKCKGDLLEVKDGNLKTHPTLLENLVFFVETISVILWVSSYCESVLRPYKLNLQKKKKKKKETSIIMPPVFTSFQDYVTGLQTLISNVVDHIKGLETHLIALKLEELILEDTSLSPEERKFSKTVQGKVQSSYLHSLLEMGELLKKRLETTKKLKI
Summary of the method: as §1

[3] = target: T3, DYNC1H1 Cytoplasmic dynein 1 heavy chain 1 (Homo sapiens, UniProt Q14204); settings: for isoTOP-ABPP ratio (R) at liganded lysine Q14204_K1649: 50 uM, in vitro, sol, 231
T3 construct: isoTOP-ABPP experiments performed in cell lysates (in vitro); endogenous in cells; host or cells: soluble proteome of human cancer cell lines (MDA-MB-231, Ramos, Jurkat)
Summary of the method: as §1

[4] = target: T4, GTPBP3 tRNA modification GTPase GTPBP3, mitochondrial (Homo sapiens, UniProt Q969Y2); settings: for isoTOP-ABPP ratio (R) at liganded lysine Q969Y2_K492: 50 uM, in vitro, sol, 231
T4 construct: isoTOP-ABPP experiments performed in cell lysates (in vitro); endogenous in cells; host or cells: soluble proteome of human cancer cell lines (MDA-MB-231; Ramos and Jurkat also prepared)
T4 sequence (Q969Y2 21-492): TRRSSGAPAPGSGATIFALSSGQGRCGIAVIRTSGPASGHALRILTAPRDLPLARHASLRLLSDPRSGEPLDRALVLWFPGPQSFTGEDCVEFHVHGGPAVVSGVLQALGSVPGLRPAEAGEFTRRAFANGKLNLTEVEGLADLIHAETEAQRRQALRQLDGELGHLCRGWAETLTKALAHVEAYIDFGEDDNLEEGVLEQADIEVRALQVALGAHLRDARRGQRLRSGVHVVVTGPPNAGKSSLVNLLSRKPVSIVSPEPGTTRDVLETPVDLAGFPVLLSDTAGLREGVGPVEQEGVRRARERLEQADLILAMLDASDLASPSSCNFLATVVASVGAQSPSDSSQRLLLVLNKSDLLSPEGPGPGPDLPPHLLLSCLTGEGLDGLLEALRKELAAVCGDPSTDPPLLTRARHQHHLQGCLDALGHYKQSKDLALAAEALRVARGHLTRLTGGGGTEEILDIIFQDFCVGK
Summary of the method: as §1

[5] = target: T5, ERAP1 Endoplasmic reticulum aminopeptidase 1 (Homo sapiens, UniProt Q9NZ08); settings: for isoTOP-ABPP ratio (R) at liganded lysine Q9NZ08_K685: 50 uM, in vitro, sol, 231
T5 construct: endogenous in cells; host or cells: MDA-MB-231 lysate
T5 sequence (Q9NZ08 whole entry): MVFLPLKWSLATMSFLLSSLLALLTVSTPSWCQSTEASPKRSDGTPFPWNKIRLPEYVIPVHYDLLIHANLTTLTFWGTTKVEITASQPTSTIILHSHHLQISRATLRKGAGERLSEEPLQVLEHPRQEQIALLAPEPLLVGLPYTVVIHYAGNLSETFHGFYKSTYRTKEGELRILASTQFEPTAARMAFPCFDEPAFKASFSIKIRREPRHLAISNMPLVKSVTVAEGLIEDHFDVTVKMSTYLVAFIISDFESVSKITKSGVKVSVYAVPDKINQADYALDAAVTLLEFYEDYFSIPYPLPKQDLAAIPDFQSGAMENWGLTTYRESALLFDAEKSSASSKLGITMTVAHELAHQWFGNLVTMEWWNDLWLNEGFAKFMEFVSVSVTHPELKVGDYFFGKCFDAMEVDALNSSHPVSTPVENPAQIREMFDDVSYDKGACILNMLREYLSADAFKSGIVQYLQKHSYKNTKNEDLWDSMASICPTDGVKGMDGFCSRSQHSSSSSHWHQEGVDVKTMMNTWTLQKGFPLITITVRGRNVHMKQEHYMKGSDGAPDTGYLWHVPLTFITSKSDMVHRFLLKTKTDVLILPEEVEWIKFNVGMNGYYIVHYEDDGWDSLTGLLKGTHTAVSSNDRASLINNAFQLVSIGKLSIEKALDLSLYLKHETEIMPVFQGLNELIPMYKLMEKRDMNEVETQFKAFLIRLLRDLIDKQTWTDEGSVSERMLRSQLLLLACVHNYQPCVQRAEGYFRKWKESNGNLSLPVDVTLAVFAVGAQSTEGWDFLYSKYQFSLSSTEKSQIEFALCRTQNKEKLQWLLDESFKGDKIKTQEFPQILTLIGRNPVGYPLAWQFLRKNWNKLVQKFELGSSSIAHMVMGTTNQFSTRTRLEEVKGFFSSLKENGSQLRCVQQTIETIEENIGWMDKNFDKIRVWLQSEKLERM
Summary of the method: as §1

Compound | isoTOP-ABPP ratio (R) at liganded lysine P12956_K351 [1] | isoTOP-ABPP ratio (R) at liganded lysine Q14204_K1649 [3] | isoTOP-ABPP ratio (R) at liganded lysine Q969Y2_K492 [4] | isoTOP-ABPP ratio (R) at liganded lysine Q9NZ08_K685 [5] | isoTOP-ABPP ratio, lysine Q9NZ08_K685 ([5]; 50 uM_231_sol_in vitro) | isoTOP-ABPP ratio, lysine P12956_K351 ([1]; 50 uM_231_sol_in vitro) | isoTOP-ABPP ratio, lysine Q14204_K1649 ([3]; 50 uM_231_sol_in vitro) | other results
O=C(Oc1ccc([N+](=O)[O-])cc1[N+](=O)[O-])c1ccc2ccccc2n1 [fragment 35, 2,4-Dinitrophenyl quinoline-2-carboxylate] | 1.5 | 1.0 | – | – | – | – | – | isoTOP-ABPP ratio (R) at liganded lysine Q14CX7_K575 ([2]; 50 uM, in vitro, sol, 231): 0.9
O=C(CC12CC3CC(CC(C3)C1)C2)Oc1ccc([N+](=O)[O-])cc1[N+](=O)[O-] [fragment 38, 2,4-Dinitrophenyl 2-(adamantan-1-yl)acetate] | 3.3 | 1.0 | 1.1 | 1.0 | – | – | – | –
CC(C)(C)OC(=O)NCCCC(=O)Oc1ccc([N+](=O)[O-])cc1[N+](=O)[O-] [fragment 41, 2,4-Dinitrophenyl 4-((tert-butoxycarbonyl)amino)butanoate] | 1.6 | 1.0 | – | 1.3 | – | – | – | –
O=C(Oc1ccc([N+](=O)[O-])cc1[N+](=O)[O-])C(c1ccccc1)(c1ccccc1)c1ccccc1 [fragment 42, 2,4-Dinitrophenyl 2,2,2-triphenylacetate] | 1.0 | 0.8 | 0.9 | 1.0 | – | – | – | –
CC(=O)Oc1ccc([N+](=O)[O-])cc1[N+](=O)[O-] [fragment 43, 2,4-Dinitrophenyl acetate] | 1.5 | 0.9 | 1.5 | 1.1 | – | – | – | –
O=C(ON1C(=O)CCC1=O)c1cc(C(F)(F)F)cc(C(F)(F)F)c1 [fragment 46, 3,5-Bis(trifluoromethyl)benzoic acid NHS ester] | – | – | – | – | 2.1 | 2.5 | 1.3 | isoTOP-ABPP ratio, lysine Q969Y2_K492 ([4]; 50 uM_231_sol_in vitro): 1.9
O=C(Oc1c(F)c(F)c(C(F)(F)F)c(F)c1F)c1cc(C(F)(F)F)cc(C(F)(F)F)c1 [fragment 47, 2,3,5,6-Tetrafluoro-4-(trifluoromethyl)phenyl 3,5-bis(trifluoromethyl)benzoate] | – | – | – | – | 1.3 | 1.4 | 0.9 | isoTOP-ABPP ratio, lysine Q969Y2_K492 ([4]; 50 uM_231_sol_in vitro): 1.7
COC(=O)NC(=NC(=O)OCC1c2ccccc2-c2ccccc21)n1cccn1 [fragment 49, N-Methoxycarbonyl-N′-9-fluorenylmethoxycarbonyl-pyrazole-1-carboxamidine] | – | – | – | – | – | – | – | isoTOP-ABPP ratio, lysine Q9NZ08_K685 ([5]; 100 uM_231_sol_in vitro): 1.6; isoTOP-ABPP ratio, lysine P12956_K351 ([1]; 100 uM_231_sol_in vitro): 20.0; isoTOP-ABPP ratio, lysine Q14CX7_K575 ([2]; 100 uM_231_sol_in vitro): 1.1
CC(C)(C)OC(=O)N=C(NC(=O)OC(C)(C)C)n1cccn1 [fragment 50, reference compound] | – | – | – | – | – | – | – | isoTOP-ABPP ratio, lysine Q969Y2_K492 ([4]; 100 uM_231_sol_in vitro): 0.9; isoTOP-ABPP ratio, lysine Q9NZ08_K685 ([5]; 100 uM_231_sol_in vitro): 20.0; isoTOP-ABPP ratio, lysine P12956_K351 ([1]; 100 uM_231_sol_in vitro): 6.0; isoTOP-ABPP ratio, lysine Q14204_K1649 ([3]; 100 uM_231_sol_in vitro): 1.3
NC(=O)c1cc(C(F)(F)F)cc(C(F)(F)F)c1 [fragment 51, reference compound] | – | – | – | – | 0.9 | 0.8 | 0.7 | isoTOP-ABPP ratio, lysine Q14CX7_K575 ([2]; 50 uM_231_sol_in vitro): 1.0
